Results: PubChem BioAssay AID1963830 (Molecular Pharmacology Branch, DTP, NCI, 2024)

System: 922993-354-T-J3-PDC complex spheroid viability
Experiment: Anticancer human tumor 922993-354-T-J3-PDC patient-derived endometrial carcinoma cell line growth inhibition [POLQ]
Details: for IC50: curve of first compound; for viability, T/C: stronger effect = lower value
Experimental: Multicellular complex tumor spheroid response to Polymerase (POL) inhibitors (novobiocin, ART-558, RP6685) in combination with a variety of drugs and investigational agents in selected tumor cell lines
The POL inhibitors (novobiocin, ART-558, and RP6685) were evaluated both individually and in combination with standard of care and investigational anticancer small molecules within a complex spheroid model of solid tumors. . Complex spheroids include a stromal component modeled by human endothelial cells (HUVEC) and fibroblasts modeled by human mesenchymal stem cells (MSCs). The concentration ranges selected for each drug and investigational agent were based upon clinically achievable concentrations if the clinical Cmax of the agent was known.
Compounds. The drugs and investigational agents: novobiocin (NSC847541), ART-558 (NSC835418), RP-6685 (NSC848927), peposertib (NSC802822), ceralasertib (NSC780249), elimusertib (NSC800525), camonsertib (NSC841442), AZD-1390 (NSC803789), olaparib (NSC753686), talazoparib (NSC767125), rucaparib (NSC756644), sotorasib (NSC818433), MRTX-1133 (NSC836407), SN-38 (NSC673596), topotecan (NSC609699), epotoside (NSC141540), doxorubicin (NSC123127), gemcitabine (NSC613327), 5-fluorouracil (NSC19893), paclitaxel (NSC125973), vemurafenib (NSC761431), MSA-2 (NSC828583), SN-011 (NSC837082), adavosertib (NSC754352), prexasertib (NSC758257), carboplatin (NSC241240) and oxaliplatin (NSC266046), were obtained from the National Cancer Institute (NCI) Developmental Therapeutics Program Chemical Repository (21). The FDA-approved anticancer drug set is available from the Developmental Therapeutics Program at https://dtp.cancer.gov/organization/dscb/obtaining/. […] The stock solutions were prepared in dimethyl sulfoxide (DMSO, Sigma-Aldrich, St. Louis, MO, cat. D2650), except for the platinum compounds which were prepared in saline (Quality Biological, Gaithersburg, MD, cat. 114-055-101), at 800-fold the tested concentration and stored at -70 degrees C prior to their use. All drugs and investigational agents were tested over a range starting from a high concentration at or near the clinical Cmax and decreasing in half-log increments. If the clinical Cmax for an agent had not been determined, the highest concentration tested was 10 microM, except for SN-38, which was tested at a high concentration of 1 microM.
Cell Culture. All cells were maintained in an incubator at 37 degrees C and 5% CO2 with 95% humidity. The PDC lines were cultured according to standard operating procedures established by the NCI PDMR (https://pdmr.cancer.gov). Table 3 of the manuscript, lists the cell lines along with the number of the three cell types plated to form the mct-spheroids and media for tumor cell growth. After thawing, all PDC lines, except 997537-175-T-J1-PDC and 415267-285-R-J2-PDC, were cultured in Matrigel-coated flasks prepared with a working solution of 1X Ham's F-12 nutrient mix, without supplementation (Thermo Fisher Scientific, cat. 11765054), 100 U/mL penicillin-streptomycin (Thermo Fisher Scientific, cat. 15140122), and 2.5% Matrigel (Corning Inc., Corning, NY, cat. 354248) for the first three passages. The two PDC lines 997537-175-T-J1-PDC and 415267-285-R-J2-PDC were cultured on uncoated flasks. The 857933-349-R-J2-PDC line was cultured in 6C/Colon 1B media containing advanced DMEM/F-12 (Thermo Fisher Scientific, cat. 12634028), 10 mM HEPES (Thermo Fisher Scientific, cat. 15630080), 1X GlutaMAX supplement (Thermo Fisher Scientific, cat. 35050061), 0.1 mg/mL primocin (InvivoGen, San Diego, CA, cat. ant-pm-2), 10% defined fetal bovine serum, heat inactivated (HyClone Laboratories Inc., Logan, UT, cat. SH30070.03HI), 50% L-WRN conditioned media (ATCC, cat. CRL-3276), 1.25 mM N-Acetyl-L-cysteine (Sigma-Aldrich, cat. A9165), 10 mM nicotinamide (Sigma-Aldrich, cat. N0636), 1X B-27 supplement (Thermo Fisher Scientific, cat. 17504044), 1X N-2 supplement (Thermo Fisher Scientific, cat. […]

[1] = second compound 0.0316 µM, first compound 0.0316 µM
[2] = second compound 0.0316 µM, first compound 0.1 µM
[3] = second compound 0.1 µM, first compound 0.0316 µM
[4] = second compound 0.1 µM, first compound 0.1 µM
[5] = second compound 0.316 µM, first compound 0.0316 µM
[6] = second compound 0.316 µM, first compound 0.1 µM
[7] = second compound 1 µM, first compound 0.0316 µM
[8] = second compound 1 µM, first compound 0.1 µM
[9] = second compound 3.16 µM, first compound 0.0316 µM
[10] = second compound 3.16 µM, first compound 0.1 µM
[11] = second compound 10 µM, first compound 0.0316 µM
[12] = second compound 10 µM, first compound 0.1 µM
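Also: spheroids exposed to the agents for one week.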
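For viability, T/C in this document: 100% = DMSO vehicle control wells.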

## CCc1cc2c(N3CCc4c(cc(Cn5ccnc5)cc4-c4cn(C)nc4C(F)(F)F)C3=O)cc(C)nc2c(OC)n1 + COC1C(OC(N)=O)C(O)C(Oc2ccc3c(O)c(NC(=O)c4ccc(O)c(CC=C(C)C)c4)c(=O)oc3c2C)OC1(C)C
Second compound 0.0316 µM
  IC50: > 10000 nM
Second compound 0.1 µM
  IC50: > 10000 nM
Second compound 0.316 µM
  IC50: > 10000 nM
Second compound 1 µM
  IC50: > 10000 nM
Second compound 3.16 µM
  IC50: > 10000 nM
Second compound 10 µM
  IC50: > 10000 nM
[1]
  viability, T/C: 113%
[2]
  viability, T/C: 98.7%
Second compound 0.0316 µM, first compound 0.316 µM
  viability, T/C: 99.7%
Second compound 0.0316 µM, first compound 1 µM
  viability, T/C: 107%
Second compound 0.0316 µM, first compound 3.16 µM
  viability, T/C: 99.8%
Second compound 0.0316 µM, first compound 10 µM
  viability, T/C: 80.5%
[3]
  viability, T/C: 111%
[4]
  viability, T/C: 94.3%
Second compound 0.1 µM, first compound 0.316 µM
  viability, T/C: 108%
Second compound 0.1 µM, first compound 1 µM
  viability, T/C: 98.1%
Second compound 0.1 µM, first compound 3.16 µM
  viability, T/C: 104%
Second compound 0.1 µM, first compound 10 µM
  viability, T/C: 88.9%
[5]
  viability, T/C: 103%
[6]
  viability, T/C: 103%
Second compound 0.316 µM, first compound 0.316 µM
  viability, T/C: 93.7%
Second compound 0.316 µM, first compound 1 µM
  viability, T/C: 108%
Second compound 0.316 µM, first compound 3.16 µM
  viability, T/C: 94.1%
Second compound 0.316 µM, first compound 10 µM
  viability, T/C: 88.1%
[7]
  viability, T/C: 108%
[8]
  viability, T/C: 111%
Second compound 1 µM, first compound 0.316 µM
  viability, T/C: 103%
Second compound 1 µM, first compound 1 µM
  viability, T/C: 99.2%
Second compound 1 µM, first compound 3.16 µM
  viability, T/C: 90.2%
Second compound 1 µM, first compound 10 µM
  viability, T/C: 82.4%
[9]
  viability, T/C: 95.9%
[10]
  viability, T/C: 106%
Second compound 3.16 µM, first compound 0.316 µM
  viability, T/C: 108%
Second compound 3.16 µM, first compound 1 µM
  viability, T/C: 95%
Second compound 3.16 µM, first compound 3.16 µM
  viability, T/C: 86.2%
Second compound 3.16 µM, first compound 10 µM
  viability, T/C: 80.6%
[11]
  viability, T/C: 92.8%
[12]
  viability, T/C: 89.1%
Second compound 10 µM, first compound 0.316 µM
  viability, T/C: 87.5%
Second compound 10 µM, first compound 1 µM
  viability, T/C: 92.9%
Second compound 10 µM, first compound 3.16 µM
  viability, T/C: 92.4%
Second compound 10 µM, first compound 10 µM
  viability, T/C: 74.3%

## CC[C@@]1(O)C(=O)OCc2c1cc1n(c2=O)Cc2cc3c(CN(C)C)c(O)ccc3nc2-1 + Cc1cccc(N(C)C(=O)C2C(O)CCN2c2nc(C)cc(C(F)(F)F)c2C#N)c1
Second compound 0.0316 µM
  IC50: 90.6 nM
Second compound 0.1 µM
  IC50: > 100 nM
Second compound 0.316 µM
  IC50: > 100 nM
Second compound 1 µM
  IC50: > 100 nM
Second compound 3.16 µM
  IC50: > 100 nM
Second compound 10 µM
  IC50: 48.5 nM
Second compound 0.0316 µM, first compound 0.000316 µM
  viability, T/C: 108%
Second compound 0.0316 µM, first compound 0.001 µM
  viability, T/C: 100%
Second compound 0.0316 µM, first compound 0.00316 µM
  viability, T/C: 104%
Second compound 0.0316 µM, first compound 0.01 µM
  viability, T/C: 98.6%
[1]
  viability, T/C: 88.2%
[2]
  viability, T/C: 46.3%
Second compound 0.1 µM, first compound 0.000316 µM
  viability, T/C: 109%
Second compound 0.1 µM, first compound 0.001 µM
  viability, T/C: 101%
Second compound 0.1 µM, first compound 0.00316 µM
  viability, T/C: 103%
Second compound 0.1 µM, first compound 0.01 µM
  viability, T/C: 102%
[3]
  viability, T/C: 90%
[4]
  viability, T/C: 65.5%
Second compound 0.316 µM, first compound 0.000316 µM
  viability, T/C: 110%
Second compound 0.316 µM, first compound 0.001 µM
  viability, T/C: 104%
Second compound 0.316 µM, first compound 0.00316 µM
  viability, T/C: 94.9%
Second compound 0.316 µM, first compound 0.01 µM
  viability, T/C: 102%
[5]
  viability, T/C: 87%
[6]
  viability, T/C: 59.1%
Second compound 1 µM, first compound 0.000316 µM
  viability, T/C: 104%
Second compound 1 µM, first compound 0.001 µM
  viability, T/C: 99.5%
Second compound 1 µM, first compound 0.00316 µM
  viability, T/C: 104%
Second compound 1 µM, first compound 0.01 µM
  viability, T/C: 99.7%
[7]
  viability, T/C: 86%
[8]
  viability, T/C: 57.3%
Second compound 3.16 µM, first compound 0.000316 µM
  viability, T/C: 108%
Second compound 3.16 µM, first compound 0.001 µM
  viability, T/C: 102%
Second compound 3.16 µM, first compound 0.00316 µM
  viability, T/C: 94.1%
Second compound 3.16 µM, first compound 0.01 µM
  viability, T/C: 93%
[9]
  viability, T/C: 77.1%
[10]
  viability, T/C: 49.9%
Second compound 10 µM, first compound 0.000316 µM
  viability, T/C: 101%
Second compound 10 µM, first compound 0.001 µM
  viability, T/C: 99.2%
Second compound 10 µM, first compound 0.00316 µM
  viability, T/C: 99.2%
Second compound 10 µM, first compound 0.01 µM
  viability, T/C: 79.1%
[11]
  viability, T/C: 68.3%
[12]
  viability, T/C: 23.7%
